Data on three compounds can be found in publication PMC3280214, “Structure Based Discovery of Small Molecules to Regulate the Activity of Human Insulin Degrading Enzyme” (PLoS ONE, 2012).

Values joined by “and” are separate entries in the source; they are usually repeats but may differ in a detail not shown here. Identical values can stand only once.

The test system of one series is HeLa cells. Description: Cell-based degradation of FITC-insulin. Conditions: for increase in magnitude of IDE activity for insulin degradation in HeLa cells: HeLa cells pre-loaded with FITC-insulin, 20 µM; for permeability through cell membrane: inferred from HeLa cell assay. Details: species or system human. The method, then:
It was shown that HeLa cells express insulin receptor, and thus take FITC-labeled insulin inside and degrade it intracellularly, [21], [22]. First, FITC-insulin was added to the culture that contains HeLa cells and incubated for 2 hours in order to allow for sufficient uptake of FITC-insulin by HeLa cells. In order to ensure that FITC-labeled insulin is translocating into the cells through insulin uptake receptor, and that cytoplasmic IDE can degrade FITC- insulin, we conducted live cell imaging of HeLa cells, and recorded fluorescence. At various time points compounds, D3, D6, and D10, were added; and cells were washed with Hank's balanced salt solution (HBSS), the these cells were collected and lysed with appropriate buffer. After centrifugation, cell free extracts were used to measure the change in fluorescence by luminometer. […] Compound D10 increased in vivo proteolysis of FITC- insulin by about 32 fold with HeLa cells compared to control group (Fig. 3A). […] These findings are consistent with the data obtained by in vitro assay, showing enhanced degradation of insulin by D10 and D3 (Fig. 3A). […] This figure further verifies the significant increase in fluorescence observed in the presence of compound D10, which is consistent with our in vitro assay (Fig. 3B).
Cells were cultured at 37°C under a humidified atmosphere of 5% CO2 in medium supplemented with 10% fetal bovine serum. Then, FITC-insulin was added to cell medium and incubated for 2 h at 37°C. Next, compounds were loaded at different time intervals separately. Cells were washed with Hank's balanced salt solution (HBSS), then disrupted with 1× passive lysis buffer. Fluorescence was measured with a luminescence multi-label plate leader, and changes in fluorescence was imaged by fluorescence microscope at Burc Laboratory (Istanbul, Turkey).

For a further series, the target named is T1, IDE (Homo sapiens, UniProt P14735).
T1 construct: made in house; host or cells: E. coli BL21
T1 sequence (P14735 1-1019): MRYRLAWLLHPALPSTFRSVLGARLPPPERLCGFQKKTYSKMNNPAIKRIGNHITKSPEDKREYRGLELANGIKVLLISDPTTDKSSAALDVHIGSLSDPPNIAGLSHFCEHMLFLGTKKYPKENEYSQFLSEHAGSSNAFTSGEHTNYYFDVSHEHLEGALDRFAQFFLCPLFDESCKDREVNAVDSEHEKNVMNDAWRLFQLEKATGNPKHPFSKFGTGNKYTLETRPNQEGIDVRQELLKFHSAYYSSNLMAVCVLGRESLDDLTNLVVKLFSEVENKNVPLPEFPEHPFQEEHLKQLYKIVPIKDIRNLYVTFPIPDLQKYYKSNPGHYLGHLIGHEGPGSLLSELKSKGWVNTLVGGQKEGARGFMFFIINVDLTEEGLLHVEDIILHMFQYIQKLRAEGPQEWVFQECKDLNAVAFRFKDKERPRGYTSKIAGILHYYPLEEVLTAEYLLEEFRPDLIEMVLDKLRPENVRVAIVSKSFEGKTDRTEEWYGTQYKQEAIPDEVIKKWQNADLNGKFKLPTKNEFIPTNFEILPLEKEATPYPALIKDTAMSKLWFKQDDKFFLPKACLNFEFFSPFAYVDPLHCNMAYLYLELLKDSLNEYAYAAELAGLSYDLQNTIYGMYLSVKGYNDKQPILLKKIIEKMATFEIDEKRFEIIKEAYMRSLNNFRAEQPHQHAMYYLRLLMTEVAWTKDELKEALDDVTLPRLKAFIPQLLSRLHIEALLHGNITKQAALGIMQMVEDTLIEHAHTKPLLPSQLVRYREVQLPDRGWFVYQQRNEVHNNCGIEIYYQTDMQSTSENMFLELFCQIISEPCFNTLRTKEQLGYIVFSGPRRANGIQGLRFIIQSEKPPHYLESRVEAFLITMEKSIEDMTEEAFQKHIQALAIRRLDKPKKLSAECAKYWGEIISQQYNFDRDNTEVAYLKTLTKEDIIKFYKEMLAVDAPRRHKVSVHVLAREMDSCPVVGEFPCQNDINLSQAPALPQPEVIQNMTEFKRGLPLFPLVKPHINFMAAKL
The series can be described thus: Degradation of fluorogenic substrate V by IDE. Type of series: biochemical. The note with it: for increase of IDE-mediated substrate V degradation: 20 µM compound; for EC50: dose response, Sigmoidal Hill 4 parameter fit. The method, then:
The 10 compounds given in Table 1 were subjected to further characterization and their effect was measured on the proteolytic activity of IDE using different substrates. Initially, activity assays were carried out at fixed 20 µM concentrations for all molecules to identify the effect of those compounds on IDE activity. IDE activity was quantified by monitoring the change in fluorescence for the proteolysis of fluorogenic-substrate V, FITC- insulin-bound antibody, and FAβB by recombinant human IDE purified from E.coli BL21 [6], [18], [19]. […] Also, D6 increased the amyloid-β degradation by 20% (Fig. S1C). Further, D10 enhanced IDE-mediated FITC-insulin-mAb and substrate V degradation by 290% and 65%, respectively (Fig. S1A, B). Next, an EC50 value of each molecule that enhanced IDE activity was determined with a dose response assay, where specific activity of IDE was measured with different concentrations of the lead compounds and then the plot was fit to Sigmoidal Hill-4 parameter equation. […] EC50 value for D3 on insulin degradation was approximately measured as 20 µM (Fig. S2C), whereas EC50 value for D6 on amyloid-β degradation was 2 µM (Fig. S2D). […] Among all these four compounds, D10 seems to be the potent activator of IDE, when proteolysis of insulin is considered.
To assess the utility of these novel compounds as chemical regulators for IDE activity, we used fluorescence assay with fluorogenic substrate V (7-methoxycoumarin-4-yl-acetyl-NPPGFSAFK-2, 4-dinitrophenyl). Reaction was carried out in the presence of 105 µl of 10 µl of 40 µM substrate V; 10 µl of 0.02 mg/ml of IDE in 83 µl of 30 mM KH2PO4 at pH of 7.3, and various concentrations (0–35 µM) compounds and also with various time intervals (0–4 hours). The reaction mixture was incubated at 37°C for 2.5 h. The hydrolysis of substrate V was monitored using a Tecan Safire2 microplate reader with excitation and emission wavelengths set at 300 and 395 nm, respectively.
The effect of the lead compounds on the initial rate of proteolysis of IDE was determined by measurement in fluorescence with time both in the presence and absence of the lead compounds. The kinetic data for IDE-mediated insulin, substrate V and amyloid-β degradation were plotted and fitted using SigmaPlot software (Sigmoidal, Hill, 4 parameter). For the initial rate calculations, kinetic data were fitted using SigmaPlot software (Hyperbola; Single Rectangular I, 3 Parameter).

Turning to `COc1ccc(C2C(C(=O)Nc3ccccc3)=C(C)N=c3sc(=Cc4cn(C)nc4C)c(=O)n32)cc1` (stereo not drawn) [Compound D3], in the series on HeLa cells, the “increase in magnitude of IDE activity for insulin degradation in HeLa cells” value is recorded as about 65% and the “permeability through cell membrane” value was “permeable through cell membrane”.
Turning to `Nc1c(C(=O)Nc2ccccc2F)c2ccccn2c1C(=O)c1ccc2c(c1)CCCC2` [Compound D4], on IDE, the “increase of IDE-mediated substrate V degradation” value was 36% and it took 7 µM to reach a half-maximal effect (EC50).
On to `Cc1nn(-c2ccccc2)c2nc(-c3cccc([N+](=O)[O-])c3)n3c4ccccc4nc3c2c1=O` [Compound D10], for which, in the series with HeLa cells, the “increase in magnitude of IDE activity for insulin degradation in HeLa cells” value is about 240% and the “permeability through cell membrane” value is recorded as “permeable through cell membrane”. Besides, on IDE, the “increase of IDE-mediated substrate V degradation” value is 65% and 60%; the midpoint of the response, the EC50, lay at 13 µM. Besides, on IDE (presence vs absence of compound), the “increase of initial rate of substrate V degradation” value was “about 2 fold”.
